Tested on: Leukocytes isolated from normal healthy individuals
Experiment: In vitro release from leukocytes adhered to polysulfone membranes, with or without LPS
Format: cell-based, human
Procedure: Leukocytes were isolated from normal healthy individuals using established methods. The leukocytes (10^6 cells per well) were placed into 12-well tissue culture plates containing 14×14 mm squares of polysulfone membranes (Fresenius, Walnut Creek, Calif.) and allowed to adhere for 60 minutes at 37° C. in RPMI media. The media was removed, cells washed with PBS, and the removed supernatants were analyzed for cell release. RPMI media with citrate (Cai=0.25 mmol/L) or without citrate (Cai=0.89 mmol/L) was used to achieve the Cai levels described in Table 5 below. Each calcium condition also had media with or without lipopolysaccharide (LPS, 1 μg/mL) to activate the leukocytes.
The cells were exposed to these conditions for […] and removed from the media to assess release of lactoferrin (LF) and myeloperoxidase (MPO), proteins in exocytotic vesicles from neutrophils, and cytokines, IL-6 and IL-8, released from leukocytes. These compounds were assayed with commercially available Elisa kits (R & D Systems, Cell Sciences, and EMD BioSciences).

[1] = with LPS (1 μg/mL), citrate media Cai 0.25 mmol/L, 60 seconds
[2] = without LPS, citrate media Cai 0.25 mmol/L, 60 seconds

O=C(O)CC(O)(CC(=O)O)C(=O)O [Citrate]
increases in LF, MPO, IL-6, or IL-8 on LPS stimulation (citrate-containing media with low Cai, in contrast to normal Cai media): no increases
IL-6 release, Stimulated [1]: 2.9 pg/mL/10^6 cells
IL-8 release, Stimulated [1]: 19.4 ng/mL/10^6 cells
Lactoferrin release, Stimulated [1]: 187 ng/mL/10^6 cells
Myeloperoxidase release, Stimulated [1]: 270 ng/mL/10^6 cells
IL-6 release, Baseline [2]: 3.3 pg/mL/10^6 cells
IL-8 release, Baseline [2]: 25.8 ng/mL/10^6 cells
Lactoferrin release, Baseline [2]: 221 ng/mL/10^6 cells
Myeloperoxidase release, Baseline [2]: 268 ng/mL/10^6 cells
